Consider two compounds from US5618724A, “Antibiotics GE 37468 A, B and C” (Gruppo Lepetit SpA, priority 1996, dated 1997).

Each structure is given as a SMILES string.

For assay [1], the system named is Clostridium perfringens L290. The conditions noted are these: Wilkins-Chalgren broth, 10^5 CFU/ml, 48 h, N2:CO2:H2 (80:10:10).
In assay [2] the test system is Staphylococcus epidermidis ATCC 12228. The conditions noted are these: Iso-Sensitest broth, 10^4 CFU/ml, 20-24 h, 37° C.
Assay [3] concerns Enterococcus faecalis ATCC 7080. As to conditions: Iso-Sensitest broth, 10^4 CFU/ml, 20-24 h, 37° C.
For assay [4], the system named is Staphylococcus aureus Smith. As to conditions: Iso-Sensitest broth, 10^4 CFU/ml, 20-24 h, 37° C.
Assay [5] deals with Staphylococcus aureus L165. As to conditions: Iso-Sensitest broth, 10^4 CFU/ml, 20-24 h, 37° C.
For assay [6], the system named is Propionibacterium acnes ATCC 6919. Briefly: MIC by broth microdilution. The class given is cell-based. The conditions noted are these: Wilkins-Chalgren broth, 10^5 CFU/ml, 48 h, N2:CO2:H2 (80:10:10). Background: Dilution methods test growth across graded concentrations, often in twofold steps.
Assay [7] concerns Staphylococcus haemolyticus L602. The conditions noted are these: Iso-Sensitest broth, 10^4 CFU/ml, 20-24 h, 37° C.

Turning to `C=C(NC(=O)c1csc(-c2ccc3c(n2)-c2csc(n2)-c2csc(n2)C2C(C)CC(O)N2C(=O)C(Cc2ccc(O)cc2)NC(=O)C2CSC(=N2)C(Cc2ccccc2)NC(=O)c2csc(n2)C(CC(N)=O)NC(=O)c2nc-3oc2C)n1)C(N)=O` (centres unmarked) [GE37468C], the M.I.C. is 0.016 microgram/ml in assay [1]; 0.25 microgram/ml in assay [2]; 0.03 microgram/ml in assay [3]; 0.03 microgram/ml in assay [4]; 0.03 microgram/ml in assay [5]; 0.616 microgram/ml in assay [6]. This compound also displayed a M.I.C. in assay [7] of 0.13 microgram/ml.
For the compound `Cc1oc2nc1C(=O)NC(CC(N)=O)c1nc(cs1)C(=O)NC(Cc1ccccc1)C1=NC(CS1)C(=O)NC(Cc1ccc(O)cc1)C(=O)N1C(O)CC(C)C1c1nc(cs1)-c1nc(cs1)-c1nc(-c3nc(C(N)=O)cs3)ccc1-2` (centres unmarked) [GE37468B], the M.I.C. in assay [1] turned out to be 0.016 microgram/ml; in assay [2] it was 0.06 microgram/ml; in assay [3], 0.03 microgram/ml; in assay [4], 0.03 microgram/ml; in assay [5], 0.03 microgram/ml; in assay [6], 0.016 microgram/ml. The M.I.C. in assay [7] came to 0.13 microgram/ml.
